Test results published in patent US20110002843A1, “METHOD OF DETECTING MYOCARDIAL DYSFUNCTION IN PATIENTS HAVING A HISTORY OF ASTHMA OR BRONCHOSPASM” (priority 2005, published 2011).
Like-named read-outs stand apart in the source and are kept apart here.

Assay: Single-dose pharmacokinetics, safety and tolerability of 10-minute intravenous infusion in healthy volunteers
Type: in vivo, human
Settings: for Cmax / Tmax / AUC(0-inf) / AUC(0-t) / clearance / half-life / Vd: human, plasma; for Cmax: read-out: Cmax, mean (SD); for AUC(0-inf): read-out: AUC0-∞, mean (SD) (converted); for AUC(0-t): read-out: AUClast, mean (SD) (converted); for Vd: read-out: Vz, mean (SD)
Protocol: Subjects: This study was conducted at the New Orleans Center for Clinical Research, New Orleans, La., in accordance with US Good Clinical Practice guidelines. Subjects were required to be in generally good health as determined by physical examination and laboratory testing, as well as assessment of vital signs. Exclusion criteria included testing positive on drug screening (drugs of abuse); ingesting caffeine, alcohol, or medication within 24 hours of study entry; or receiving an investigational drug with 30 days of study entry. Women of childbearing potential and men whose female partners were not using an acceptable contraceptive method were excluded. Other exclusion criteria included subjects with known postural hypotension, resting supine systolic blood pressure of 90 mmHg or lower, diastolic blood pressure of 60 mmHg or lower and heart rate of 90 beats/min or greater; history of human immunodeficiency virus infection; positive test result for hepatitis B surface antigen or hepatitis C antibody; and any clinically relevant condition that could potentially confound the analysis or present a safety risk.
Study Methods: The study was designed as a single-center, open-label, nonrandomized, intravenous dose-escalation study in 4 cohorts (n=6 each) of healthy volunteers. The protocol was approved by the institutional review board; all subjects gave written informed consent. Subjects from each cohort were to receive 3 rising doses of binodenoson administered via intravenous infusion over a period of 10 minutes, at a rate not to exceed 6 μg/kg/min. Although the successive doses of binodenoson were administered on the same study day, the washout period between doses was at least 2 hours. Subjects in cohort 1 received consecutive binodenoson doses of 0.1, 0.2 and 0.4 μg/kg; cohort 2 received 0.6, 1 and 2 μg/kg; cohort 3 received 2, 3 and 4 μg/kg; and cohort 4 received 4, 5 and 6 μg/kg.
Serial vital sign monitoring of heart rate, supine systolic blood pressure and diastolic blood pressure was done at screening and during each dosing phase within 10 minutes before infusion, at 2, 4, 6, 8 and 10 minutes during infusion and at 2, 5, 7.5, 10, 15, 20, 30, 45, 60, 90 and 120 minutes after infusion. A 12-lead electrocardiogram (ECG) was obtained at screening and the end of the study. The ECG was monitored via telemetry during the treatment phase, including during the infusions. Monitoring was initiated within 1 hour before dosing and continued until 24 hours after completion of the last dose.
A total of 40 to 42 blood samples were collected during the treatment phase for quantitation of binodenoson in plasma. Before dosing, a polyethylene catheter was inserted into a vein of the forearm contralateral to the infusion site. Blood samples (5 mL) were drawn into prechilled Vacutainer tubes (BD, Franklin Lakes, N.J.) just before infusion (−1 minute), at the midpoint (5 minutes) and end (10 minutes) of infusion and at 2, 5, 7.5, 10, 15, 20, 30, 45, 60, 90 and 120 minutes after the end of infusion. Plasma was separated from cellular material by centrifugation under refrigeration (4° C.) at 4000 rpm for 10 minutes and then stored in cryotubes at −80° C. until analyzed. The total amount of blood taken during the intensive sampling period was approximately 200 mL. Plasma concentrations of binodenoson were determined by a validated high-performance liquid chromatography-mass spectrometry (LC/MS/MS) assay at Phoenix International, Inc. (Montreal, Quebec, Canada).
Pharmacokinetic parameters were derived for each subject's plasma binodenoson concentration-time profile for each binodenoson infusion by use of noncompartmental methods with the statistical software program SAS (SAS Institute, Cary, N.C.). The peak concentration (Cmax) and corresponding time to (Cmax) (tmax) were derived by observation. […]

[1] = 0.4 ug/kg, 0.4 μg/kg iv over 10 minutes
[2] = 0.6 ug/kg, 0.6 μg/kg iv over 10 minutes
[3] = 1 ug/kg, 1 μg/kg iv over 10 minutes
[4] = 2 ug/kg, 2 μg/kg iv over 10 minutes
[5] = 3 ug/kg, 3 μg/kg iv over 10 minutes
[6] = 4 ug/kg, 4 μg/kg iv over 10 minutes
[7] = 6 ug/kg, 6 μg/kg iv over 10 minutes
[8] = 8 ug/kg, 8 μg/kg iv over 10 minutes

Nc1nc(N/N=C/C2CCCCC2)nc2c1ncn2[C@@H]1O[C@H](CO)[C@@H](O)[C@H]1O (stereo in doubt) [Binodenoson, 2-{2-[(Cyclohexyl)methylene]hydrazino}adenosine]
maximum increase in heart rate (1 μg/kg dose): 29 beats/min | mean maximal increase in systolic blood pressure from baseline (1 μg/kg dose): 8.8 mmHg | maximum increase in heart rate (6 μg/kg dose): 66.3 beats/min | mean maximal increase in systolic blood pressure from baseline (6 μg/kg dose): 27.9 mmHg | volunteers reporting at least 1 AE (21 of 24 volunteers): 83% | AEs judged related to administration of binodenoson (all doses): 99% | AEs of mild severity (all doses): 82% | AEs of moderate severity (all doses): 17% | AEs that began during drug infusions and resolved within 30 minutes of onset (all doses): 75% | ECG changes (all doses): no clinically significant ECG changes | serious AEs (all doses): no serious AEs | frequency of dizziness (doses of 1 μg/kg or lower): 0% | frequency of headache (doses of 1 μg/kg or lower): 7% | frequency of nausea/vomiting (doses of 1 μg/kg or lower): 0% | frequency of paresthesia (doses of 1 μg/kg or lower): 3% | frequency of vasodilation (doses of 1 μg/kg or lower): 14% | frequency of dizziness (doses of 2 μg/kg or greater): 24% | frequency of headache (doses of 2 μg/kg or greater): 60% | frequency of nausea/vomiting (doses of 2 μg/kg or greater): 49% | frequency of paresthesia (doses of 2 μg/kg or greater): 19% | frequency of vasodilation (doses of 2 μg/kg or greater): 54% | tolerability (doses ranging from 0.4 μg/kg to 6 μg/kg): well tolerated | Cmax [1]: 0.9 ng/mL | Cmax [2]: 1.1 ng/mL | Cmax [3]: 2.1 ng/mL | Cmax [4]: 3.9 ng/mL | Cmax [5]: 6.2 ng/mL | Cmax [6]: 8.7 ng/mL | Cmax [7]: 12.5 ng/mL | Cmax [8]: 12.1 ng/mL | Tmax [1]: 10 min | AUC(0-inf) [1]: 0.207 ng·h/mL | AUC(0-t) [1]: 0.15 ng·h/mL | clearance (0.4 ug/kg, 0.4 μg/kg iv over 10 minutes, read-out: CL, mean (SD)): 33.4 mL/min/kg | half-life (0.4 ug/kg, 0.4 μg/kg iv over 10 minutes, read-out: T1/2, mean (SD)): 8.8 min | Vd [1]: 0.39 L/kg | Tmax [2]: 7.5 min | AUC(0-inf) [2]: 0.353 ng·h/mL | AUC(0-t) [2]: 0.208 ng·h/mL | clearance (0.6 ug/kg, 0.6 μg/kg iv over 10 minutes, read-out: CL, mean (SD)): 28.8 mL/min/kg | half-life (0.6 ug/kg, 0.6 μg/kg iv over 10 minutes, read-out: T1/2, mean (SD)): 11.7 min | Vd [2]: 0.46 L/kg | Tmax [3]: 10 min | AUC(0-inf) [3]: 0.465 ng·h/mL | AUC(0-t) [3]: 0.415 ng·h/mL | clearance (1 ug/kg, 1 μg/kg iv over 10 minutes, read-out: CL, mean (SD)): 38.3 mL/min/kg | half-life (1 ug/kg, 1 μg/kg iv over 10 minutes, read-out: T1/2, mean (SD)): 7.4 min | Vd [3]: 0.4 L/kg | Tmax [4]: 10 min | AUC(0-inf) [4]: 0.928 ng·h/mL | AUC(0-t) [4]: 0.855 ng·h/mL | clearance (2 ug/kg, 2 μg/kg iv over 10 minutes, read-out: CL, mean (SD)): 33 mL/min/kg | half-life (2 ug/kg, 2 μg/kg iv over 10 minutes, read-out: T1/2, mean (SD)): 10 min | Vd [4]: 0.48 L/kg | Tmax [5]: 9.5 min | AUC(0-inf) [5]: 1.42 ng·h/mL | AUC(0-t) [5]: 1.31 ng·h/mL | clearance (3 ug/kg, 3 μg/kg iv over 10 minutes, read-out: CL, mean (SD)): 35.4 mL/min/kg | half-life (3 ug/kg, 3 μg/kg iv over 10 minutes, read-out: T1/2, mean (SD)): 12.8 min | Vd [5]: 0.65 L/kg | Tmax [6]: 10 min | AUC(0-inf) [6]: 2.03 ng·h/mL | AUC(0-t) [6]: 1.93 ng·h/mL | clearance (4 ug/kg, 4 μg/kg iv over 10 minutes, read-out: CL, mean (SD)): 39.8 mL/min/kg | half-life (4 ug/kg, 4 μg/kg iv over 10 minutes, read-out: T1/2, mean (SD)): 13 min | Vd [6]: 0.69 L/kg | Tmax [7]: 9 min | AUC(0-inf) [7]: 2.32 ng·h/mL | AUC(0-t) [7]: 2.22 ng·h/mL | clearance (6 ug/kg, 6 μg/kg iv over 10 minutes, read-out: CL, mean (SD)): 33.9 mL/min/kg | half-life (6 ug/kg, 6 μg/kg iv over 10 minutes, read-out: T1/2, mean (SD)): 14.9 min | Vd [7]: 0.7 L/kg | Tmax [8]: 10.5 min | AUC(0-inf) [8]: 2.72 ng·h/mL | AUC(0-t) [8]: 2.6 ng·h/mL | clearance (8 ug/kg, 8 μg/kg iv over 10 minutes, read-out: CL, mean (SD)): 39.5 mL/min/kg | half-life (8 ug/kg, 8 μg/kg iv over 10 minutes, read-out: T1/2, mean (SD)): 12.3 min | Vd [8]: 0.68 L/kg | clearance (intravenous, across all dose levels, read-out: mean systemic clearance): 34.4 ± 7.5 mL/min/kg | half-life (intravenous, across all doses, read-out: terminal half-life, harmonic mean): 10 ± 4 min | relationship between clearance (CL) and body weight (BW) (linear mixed-effect model, p=0.004): CL=−0.19+0.039 BW | AUC0-t as share of total AUC0-∞ (trapezoidal rule): greater than 80%
